Values after ≈ are worked out from the molar mass of the structure shown. Read-outs that look alike come from different tables or passages of the source. Ends that are not written are not given here. Peptide text beside a SMILES is read from it. * marks the point of attachment. Fmoc = O=C(OCC1c2ccccc2-c2ccccc21)*; X1 = O=C(Sc1ccccc1)*
Experiments:
[1] = system: S. epidermidis (51625); format: cell-based
[2] = system: RNAIII; format: cell-based, S. aureus
[3] = system: S. haemolyticus; format: cell-based
[4] = system: S. aureus
[5] = system: S. warneri
[6] = system: S. aureus; format: cell-based
[7] = system: S. aureus; assay: Mouse model, Staph mixed with drug prior to IP injection; format: in vivo, mice; details: for % Survival at 24 hr.: mixed with Staph prior to IP injection; for Number of mice that survived at 24 hours post-injection (in words): VIF-1 3 or 15 mg/kg, FTB 1, 2 or 5 mg/kg
Method: (§1) The assay was carried out by injecting a fixed amount of a S. aureus culture, typically containing from about 5×10^9 cells from an early exponential growth stage culture, by intraperitoneal (IP) injection into mice, based on the method described by Thakker et al., 1998.
In one study, the S. aureus was mixed with VIF-1 or FTB, prior to IP injection.

[8] = system: S. aureus; assay: Mouse model, Staph injected IP 20 min prior to drug injection (IP); format: in vivo, mice; details: for % Survival at 24 hr.: 20 min after Staph; for Number of mice that survived at 24 hours post-injection relative to vehicle (in words): VIF-1 20 or 15 mg/kg, FTB 10 mg/kg
Method: as §1
In another approach, S. aureus was injected IP 20 minutes prior to IP injection of VIF-1 or FTB.
The commonly used anti-Staphylococcal antibiotics, methicillin and vancomycin, were tested in this model.

[9] = system: S. aureus; assay: microbe, parasite or virus in culture; details: Staphylococcus aureus, Erythrocyte, in Oryctolagus cuniculus
[10] = system: RNAIII; details: reported by Balaban et al., 1998; cited from earlier work

Compound	IC50, α-toxin production [1]	Inhibition of RNA III activation [2]	IC50, α-toxin production [3]	Inhibition of α-Hemolysin production [4]	Inhibition of α-toxin production (in words) [4]	IC50, α-toxin production [5]	Inhibition of TSST-1 [6]	further results
O=C(Nc1ccccc1C(=O)O)OCC1c2ccccc2-c2ccccc21 [Reference #4, Fmoc-2-aminobenzoic acid]	0.5 µg/mL (≈ 1.39 µM)	2.9 (3) μg/ml	0.7 µg/mL (≈ 1.95 µM)	0.9 (5) μg/ml	inhibited α-toxin production	0.6 µg/mL (≈ 1.67 µM)	2.0 µg/mL	–
O=C(O)[C@H]1c2ccccc2CCN1C(=O)OCC1c2ccccc2-c2ccccc21 [Reference #16]	0.5 µg/mL (≈ 1.25 µM)	3.5 (3) μg/ml	0.6 µg/mL (≈ 1.5 µM)	1.3 (3) μg/ml	inhibited α-toxin production	0.6 µg/mL (≈ 1.5 µM)	4.0 µg/mL	–
O=C(N[C@@H](Cc1cn(C(c2ccccc2)(c2ccccc2)c2ccccc2)cn1)C(=O)O)OCC1c2ccccc2-c2ccccc21 [Reference #29, Fmoc-L-His(Trt)-OH]	–	3.7 (3) μg/ml	–	2.7 (3) μg/ml	–	–	4.0 µg/mL	–
CC(C)(C)OC(=O)n1cc(C[C@H](NC(=O)OCC2c3ccccc3-c3ccccc32)C(=O)O)c2ccccc21 [Reference #35, Fmoc-L-Trp(Boc)-OH]	0.5 µg/mL (≈ 0.95 µM)	1.4 µg/mL	0.6 µg/mL (≈ 1.14 µM)	1.2 (13) μg/ml	inhibited α-toxin production	0.6 µg/mL (≈ 1.14 µM)	5.0 µg/mL	% Survival at 24 hr. ([7]; 0.2 mg/kg): 0%; % Survival at 24 hr. ([7]; 1 mg/kg): 83%; % Survival at 24 hr. ([7]; 2 mg/kg): 67%; % Survival at 24 hr. ([7]; 5 mg/kg): 83%; Number of mice that survived at 24 hours post-injection (in words) [7]: effective to significantly increase the number of mice that survived; IC50, α-toxin production [4]: 0.8 µg/mL (≈ 1.52 µM); % Survival at 24 hr. ([8]; 2 mg/kg IP): 25%; % Survival at 24 hr. ([8]; 10 mg/kg IP): 71%; Number of mice that survived at 24 hours post-injection relative to vehicle (in words) [8]: effective to significantly increase the number of mice that survived
N[C@@H](Cc1c[nH]c2ccccc12)C(=O)O [Reference #46, H-L-Trp-OH]	–	>10.0 (3) μg/ml	–	–	–	–	>10.0 µg/mL	–
O=C(N[C@@H](Cc1cccs1)C(=O)O)OCC1c2ccccc2-c2ccccc21 [Reference #83, Fmoc-beta-(2-thienyl)-L-alanine]	–	–	–	–	–	–	–	IC50 ([9]; read-out: IC50 (relative activity), text b100/b101, assay not named, values match the α-hemolysin column of Table 4): 25 µg/mL (≈ 63.5 µM); IC50 ([9]; read-out: Inhibition of α-Hemolysin production, Table 4, (n) in cell = number of determinations): 25 µg/mL (≈ 63.5 µM)
O=C(NC1(C(=O)O)CCCCC1)OCC1c2ccccc2-c2ccccc21 [Reference #86, Fmoc-1-amino-1-cyclohexane carboxylic acid]	0.4 µg/mL (≈ 1.09 µM)	3.0 (3) μg/ml	0.6 µg/mL (≈ 1.64 µM)	2.1 (3) μg/ml	inhibited α-toxin production	0.6 µg/mL (≈ 1.64 µM)	10.0 µg/mL	–
O=C(O)[C@@H]1CC[C@H](c2ccccc2)N1C(=O)OCC1c2ccccc2-c2ccccc21 [Reference #113, (2S,5R)-Fmoc-5-phenyl-pyrrolidine-2-carboxylic acid]	0.5 µg/mL (≈ 1.21 µM)	3.0 (1) μg/ml	0.7 µg/mL (≈ 1.69 µM)	1.7 (5) μg/ml	inhibited α-toxin production	0.6 µg/mL (≈ 1.45 µM)	6.0 µg/mL	IC50, α-toxin production [4]: 0.9 µg/mL (≈ 2.18 µM)
O=C(N[C@@H](C/C=C/c1ccccc1)C(=O)O)OCC1c2ccccc2-c2ccccc21 [Reference #124, Fmoc-L-styrylalanine]	0.6 µg/mL (≈ 1.45 µM)	2.9 (1) μg/ml	0.5 µg/mL (≈ 1.21 µM)	2.0 (4) μg/ml	inhibited α-toxin production	0.7 µg/mL (≈ 1.69 µM)	10.0 µg/mL	–
C[C@@H](O)[C@H](NC(=O)[C@H](Cc1cn(C(=O)Sc2ccccc2)c2ccccc12)NC(=O)[C@@H]1CCCN1C(=O)[C@H](CO)NC(=O)[C@H](Cc1ccc(O)cc1)NC(=O)OCC1c2ccccc2-c2ccccc21)C(=O)N[C@@H](CC(N)=O)C(=O)N[C@@H](Cc1ccccc1)C(=O)O [VIF-1, (Fmoc-Tyr)-Ser-Pro-Trp(phenylthiocarbamate)-Thr-Asn-Phe] (Fmoc-YSPW(X1)TNF-OH; C-terminus assumed)	–	1.5 µg/mL	–	1.1 µg/mL	inhibited α-toxin production	0.1 µg/mL (≈ 0.0786 µM)	–	% Survival at 24 hr. ([7]; 1 mg/kg): 67%; % Survival at 24 hr. ([7]; 3 mg/kg): 83%; % Survival at 24 hr. ([7]; 15 mg/kg): 83%; Number of mice that survived at 24 hours post-injection (in words) [7]: effective to significantly increase the number of mice that survived; IC50, α-toxin production [4]: 0.6 µg/mL (≈ 0.472 µM); % Survival at 24 hr. ([8]; 6 mg/kg IP): 13%; % Survival at 24 hr. ([8]; 15 mg/kg IP): 50%; % Survival at 24 hr. ([8]; 20 mg/kg IP): 67%; Number of mice that survived at 24 hours post-injection relative to vehicle (in words) [8]: effective to significantly increase the number of mice that survived; IC50 for inhibition of hemolysin production [5]: 0.10 µg/mL; Inhibition of hemolysin production (in words) [5]: potently inhibited; Lowest concentration that suppressed release of TSST-1 [6]: 0.2 µg/mL
ProCysThrAsnPhe (PCTNF; printed: ProCysThrAsnPhe) [peptide 1]	–	–	–	–	–	–	–	Inhibition of induction of RNAIII (in words) [10]: inactive
YSPWTNF [PEP, reference compound]	–	–	–	–	–	–	–	Inhibition of RNAIII induction (in words) [2]: no significant activity; Inhibition of induction of RNAIII (in words) [10]: inhibit induction of RNAIII as effectively as RIP; Inhibition of α-toxin / virulence factor production (in words) [4]: no significant activity
